“Also recorded” adds a separate entry of the source.
Tests used:
PAE's = assay: Cytotox LDH release assay: effect of sugars on lysis of PAE's by human serum; type: cell-based, porcine; conditions: 50% human serum, sugar 1 mM to 100 mM
Description: B. LDH Release Assay • 1. […] Controls: • a) Spontaneous release (no antibody or complement) • 25 μl labeled cells • 75 μl RPMI/10% FCS (heat inactivated) • b) Maximum release • 25 μl labeled cells • 50 μl 16% Triton X-100 • 25 μl RPMI/10% FCS (heat inactivated) • 3. Calculation of % Lysis: % Lysis=Experimental release−(Spontaneous release cpm+sugar cpm)×100 Maximum release−(Spontaneous release cpm+sugar cpm) • 4. Experimental Design:
The effect of adding the disaccharide sugars melibiose ([…]) and lactose (Gal β1→4 Glu) on the lysis of PAE's by human serum was assessed using the Cytotox non-radioactive LDH release assay. PAE's were incubated in the presence of 50% human serum as the source of xenoantibody and complement, together with various concentrations of each sugar (1 mM to 100 mM).

rat heart = assay: Langendorf isolated perfused ex vivo heart model; conditions: sugar 10 mM, human plasma to 13%
Description: A. Preparation and Storage of Human Plasma • 1. Centrifuge fresh human blood at 3000 rpm, 10 min., 4° C. to remove red blood cells (RBC's) • 2. Remove the plasma • 3. Centrifuge the plasma at 10,000 rpm, 10 min. 4° C. to remove any remaining cells; decant the plasma • 4. Add 2.5 ml of 0.1M EDTA pH 7.30 for every 50 ml of plasma • 5. Store 50 ml aliquots at −70° C. • 6. For heat-inactivated plasma, heat at 56° C. for 60 min., then centrifuge at 2,500 rpm for 10 min.
Plasma prepared from different blood packs is thawed at 37° C., pooled and filtered (100 μm steel mesh, 8.0 μm and 4.5 μm Millipore filters, sequentially). Cacl2 is added at 0.58 mg/ml plasma, and the plasma kept on ice until ready for perfusion.
1. Anesthetize rats with Nembutal (1 μl sodium pentobarbitone (60 mg/ml)/g body weight) and mice with ether.
2. Surgically expose the heart and inject heparin (Porcine Mucous, 10,000 U/ml) into the femoral vein (rats: 0.3 ml injected).
3. Remove heart and place in ice-cold Krebs-Henseleit buffer containing heparin (0.2 ml/50 ml buffer. • Krebs-Henseleit buffer: • 119 mM NaCl • 25 mM NaHCO3 • 4.6 mM KCl • 1.2 mM MgSO4.7H2O • 1.3 mM CaCl2.2H2O • 1.2 mM KH2PO4 • 11 mM glucose • 0.25% (v/v) BSA • Adjust to pH 7.4; store at 4° C.
4. Connect aorta to the canula of the Langendorf perfusion apparatus and tie firmly. The apparatus was assembled by the present inventors according to experimental requirements of the Langendorf heart model as described in Doring & Dehnerrt, The Isolated Perfused Heart According to Langendorf, Bionesstechnik-Verlag March GmbH, D7806, West Germany.
5. Perfuse with Krebs-Henseleit buffer (made fresh each day), which is gassed continuously with carbogen (95% O2, 5% CO2) at a pressure of 100 mmHg, at 37° C.
6. Attach a hook, connected to a transducer (Physiograph MK-111-S, Narco Bio-Systems) to the apex of the heart.
7. Perfuse heart for 20 min. with Krebs-Henseleit buffer to enable heart to stabilize (reservoir volume: 270 ml).
8. […]

Row | SMILES | protection of PAE's from lysis by human serum (PAE's) | cardiac function of rat heart perfused with human plasma plus sugar (rat heart) | cardiac function of rat heart perfused with human plasma plus sugar (rat heart; listed as lactose)
1 | OC[C@H]1O[C@@H](O[C@H]2[C@H](O)[C@@H](O)[C@@H](O)O[C@@H]2CO)[C@H](O)[C@@H](O)[C@H]1O [Lactose, 4-O-β-D.galactopyranosyl-α-D-glucose] | not | does-not prolong heart survival | the heart essentially stopped beating within minutes. The same result was obtained
2 | O=C[C@H](O)[C@@H](O)[C@H](O)[C@H](O)CO[C@H]1O[C@H](CO)[C@H](O)[C@H](O)[C@H]1O [Melibiose, 6-O-α-D-galactopyranosyl-D-glucose] | protected the pig cells from lysis | the heart was able to maintain a strong beat; also recorded: prolongs heart survival and output | –

From patent publication US7201899B2, “Materials and methods for management of hyperacute rejection in human xenotransplantation” (BresaGen Limited, priority 1994, dated 2007)
